Source: PubChem BioAssay (NCI)
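Method: 48-hour compound exposure of cells in 96-well plates, five concentrations, linear interpolation of endpoints. GI50 is the concentration that inhibits growth by half. The concentration for full growth arrest is given as TGI.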

Tests used:
Assay in all cases: NCI tumour cell line growth inhibition, 48 h
COLO 205 colon = system: COLO 205 colon
CCRF-CEM leukemia = system: CCRF-CEM leukemia
UACC-257 melanoma = system: UACC-257 melanoma
IGROV1 ovarian = system: IGROV1 ovarian
NCI-H460 lung = system: NCI-H460 lung
U251 CNS = system: U251 CNS
OVCAR-4 ovarian = system: OVCAR-4 ovarian
HL-60(TB) leukemia = system: HL-60(TB) leukemia
HCT-116 colon = system: HCT-116 colon
ACHN renal = system: ACHN renal
MDA-MB-435 = system: MDA-MB-435
HCT-15 colon = system: HCT-15 colon
BT-549 breast = system: BT-549 breast
A549 NSCLC = system: A549 NSCLC
SN12C renal = system: SN12C renal
RXF 393 renal = system: RXF 393 renal
SF-268 CNS = system: SF-268 CNS
NCI-H522 lung = system: NCI-H522 lung
KM12 colon = system: KM12 colon
786-0 renal = system: 786-0 renal
A498 renal = system: A498 renal
HOP-92 NSCLC = system: HOP-92 NSCLC
SK-MEL-2 melanoma = system: SK-MEL-2 melanoma
K-562 leukemia = system: K-562 leukemia
LOX IMVI melanoma = system: LOX IMVI melanoma
SR leukemia = system: SR leukemia
EKVX NSCLC = system: EKVX NSCLC
MOLT-4 leukemia = system: MOLT-4 leukemia
MCF7 breast = system: MCF7 breast
SK-MEL-28 melanoma = system: SK-MEL-28 melanoma
M14 melanoma = system: M14 melanoma
NCI-H23 lung = system: NCI-H23 lung
HS 578T breast = system: HS 578T breast
OVCAR-3 ovarian = system: OVCAR-3 ovarian
SF-539 CNS = system: SF-539 CNS
RPMI-8226 leukemia = system: RPMI-8226 leukemia
TK-10 renal = system: TK-10 renal
OVCAR-8 ovarian = system: OVCAR-8 ovarian
MDA-MB-231 breast = system: MDA-MB-231 breast
SNB-19 CNS = system: SNB-19 CNS
PC-3 prostate = system: PC-3 prostate
MDA-MB-468 breast = system: MDA-MB-468 breast
SF-295 CNS = system: SF-295 CNS
SW-620 colon = system: SW-620 colon
OVCAR-5 ovarian = system: OVCAR-5 ovarian
UO-31 renal = system: UO-31 renal
SK-OV-3 ovarian = system: SK-OV-3 ovarian
DU-145 prostate = system: DU-145 prostate
T-47D breast = system: T-47D breast
HOP-62 NSCLC = system: HOP-62 NSCLC
UACC-62 melanoma = system: UACC-62 melanoma
HT29 colon = system: HT29 colon
SNB-75 CNS = system: SNB-75 CNS
NCI/ADR-RES ovarian = system: NCI/ADR-RES ovarian
HCC-2998 colon = system: HCC-2998 colon
CAKI-1 renal = system: CAKI-1 renal
NCI-H226 lung = system: NCI-H226 lung
SK-MEL-5 melanoma = system: SK-MEL-5 melanoma
MALME-3M melanoma = system: MALME-3M melanoma

Compound `O=C(N/N=C/c1ccsc1)c1[nH]c2ccc(Br)cc2c1-c1ccccc1` has a GI50 (COLO 205 colon) of 353 nM, a TGI (COLO 205 colon) of 1970 nM and a GI50 (CCRF-CEM leukemia) of 228 nM. The TGI (CCRF-CEM leukemia) was 21700 nM, the GI50 (UACC-257 melanoma) was 6930 nM and the TGI (UACC-257 melanoma) was 41300 nM. It also gave a GI50 (IGROV1 ovarian) of 600 nM, a TGI (IGROV1 ovarian) of 15600 nM and a GI50 (NCI-H460 lung) of 156 nM. It also gave a TGI (NCI-H460 lung) of 10600 nM, a GI50 (U251 CNS) of 724 nM and a TGI (U251 CNS) of 18900 nM. For the same compound, the GI50 (OVCAR-4 ovarian) was 6100 nM, the TGI (OVCAR-4 ovarian) was greater than 66600 nM and the GI50 (HL-60(TB) leukemia) was 199 nM. The TGI (HL-60(TB) leukemia) was 656 nM, the GI50 (HCT-116 colon) was 190 nM and the TGI (HCT-116 colon) was 4410 nM. For the same compound, the GI50 (ACHN renal) was 585 nM, the TGI (ACHN renal) was 27700 nM and the GI50 (MDA-MB-435) was 76.4 nM. For the same compound, the TGI (MDA-MB-435) was 525 nM, the GI50 (HCT-15 colon) was 256 nM and the TGI (HCT-15 colon) was 12800 nM. For the same compound, the GI50 (BT-549 breast) was 317 nM, the TGI (BT-549 breast) was 1950 nM and the GI50 (A549 NSCLC) was 460 nM. The TGI (A549 NSCLC) was greater than 100000 nM, the GI50 (SN12C renal) was 473 nM and the TGI (SN12C renal) was 12500 nM. For the same compound, the GI50 (RXF 393 renal) was 287 nM, the TGI (RXF 393 renal) was 26700 nM and the GI50 (SF-268 CNS) was 817 nM. The TGI (SF-268 CNS) was 17900 nM, the GI50 (NCI-H522 lung) was 163 nM and the TGI (NCI-H522 lung) was 699 nM. The GI50 (KM12 colon) was 327 nM, the TGI (KM12 colon) was 14100 nM and the GI50 (786-0 renal) was 509 nM. For the same compound, the TGI (786-0 renal) was 17700 nM, the GI50 (A498 renal) was 19500 nM and the TGI (A498 renal) was 46500 nM. The GI50 (HOP-92 NSCLC) was 2440 nM, the TGI (HOP-92 NSCLC) was 25000 nM and the GI50 (SK-MEL-2 melanoma) was 764 nM. The TGI (SK-MEL-2 melanoma) was 20000 nM, the GI50 (K-562 leukemia) was 103 nM and the TGI (K-562 leukemia) was greater than 44000 nM. It also gave a GI50 (LOX IMVI melanoma) of 217 nM, a TGI (LOX IMVI melanoma) of 13300 nM and a GI50 (SR leukemia) of 255 nM. It also gave a TGI (SR leukemia) of 63500 nM, a GI50 (EKVX NSCLC) of 872 nM and a TGI (EKVX NSCLC) of 29300 nM. It also gave a GI50 (MOLT-4 leukemia) of 386 nM, a TGI (MOLT-4 leukemia) of 18400 nM and a GI50 (MCF7 breast) of 132 nM. For the same compound, the TGI (MCF7 breast) was 13400 nM, the GI50 (SK-MEL-28 melanoma) was 4190 nM and the TGI (SK-MEL-28 melanoma) was 22600 nM. The GI50 (M14 melanoma) was 267 nM, the TGI (M14 melanoma) was 13100 nM and the GI50 (NCI-H23 lung) was 696 nM. It also gave a TGI (NCI-H23 lung) of 18900 nM, a GI50 (HS 578T breast) of 202 nM and a TGI (HS 578T breast) of 13200 nM. It also gave a GI50 (OVCAR-3 ovarian) of 202 nM, a TGI (OVCAR-3 ovarian) of 12600 nM and a GI50 (SF-539 CNS) of 190 nM. The TGI (SF-539 CNS) was 943 nM, the GI50 (RPMI-8226 leukemia) was 236 nM and the TGI (RPMI-8226 leukemia) was 16600 nM. It also gave a GI50 (TK-10 renal) of 13500 nM, a TGI (TK-10 renal) of 85000 nM and a GI50 (OVCAR-8 ovarian) of 313 nM. It also gave a TGI (OVCAR-8 ovarian) of 10300 nM, a GI50 (MDA-MB-231 breast) of 792 nM and a TGI (MDA-MB-231 breast) of 13100 nM. For the same compound, the GI50 (SNB-19 CNS) was 1840 nM, the TGI (SNB-19 CNS) was 66400 nM and the GI50 (PC-3 prostate) was 612 nM. For the same compound, the TGI (PC-3 prostate) was 24000 nM, the GI50 (MDA-MB-468 breast) was 255 nM and the TGI (MDA-MB-468 breast) was 3890 nM. For the same compound, the GI50 (SF-295 CNS) was 189 nM, the TGI (SF-295 CNS) was 13800 nM and the GI50 (SW-620 colon) was 204 nM. It also gave a TGI (SW-620 colon) of 19100 nM, a GI50 (OVCAR-5 ovarian) of 563 nM and a TGI (OVCAR-5 ovarian) of 22500 nM. For the same compound, the GI50 (UO-31 renal) was 578 nM, the TGI (UO-31 renal) was 24200 nM and the GI50 (SK-OV-3 ovarian) was 2050 nM. For the same compound, the TGI (SK-OV-3 ovarian) was 27200 nM, the GI50 (DU-145 prostate) was 435 nM and the TGI (DU-145 prostate) was 32900 nM. For the same compound, the GI50 (T-47D breast) was 3120 nM, the TGI (T-47D breast) was 48500 nM and the GI50 (HOP-62 NSCLC) was 512 nM. For the same compound, the TGI (HOP-62 NSCLC) was 18100 nM, the GI50 (UACC-62 melanoma) was 299 nM and the TGI (UACC-62 melanoma) was 16000 nM. It also gave a GI50 (HT29 colon) of 272 nM, a TGI (HT29 colon) of 4750 nM and a GI50 (SNB-75 CNS) of 234 nM. The TGI (SNB-75 CNS) was 21500 nM, the GI50 (NCI/ADR-RES ovarian) was 173 nM and the TGI (NCI/ADR-RES ovarian) was 549 nM. For the same compound, the GI50 (HCC-2998 colon) was 399 nM, the TGI (HCC-2998 colon) was 13000 nM and the GI50 (CAKI-1 renal) was 315 nM. It also gave a TGI (CAKI-1 renal) of 25000 nM, a GI50 (NCI-H226 lung) of 1750 nM and a TGI (NCI-H226 lung) of 27600 nM. It also gave a GI50 (SK-MEL-5 melanoma) of 260 nM, a TGI (SK-MEL-5 melanoma) of 1830 nM and a GI50 (MALME-3M melanoma) of 6990 nM. It also gave a TGI (MALME-3M melanoma) of 26100 nM.
